Laboratory results reported in BindingDB's records for doi:10.3109/14756366.2012.742517 (Seoul National University, 2014).

Target: T1, Pancreatic triacylglycerol lipase (Sus scrofa, UniProt P00591)
T1 sequence (P00591 whole entry): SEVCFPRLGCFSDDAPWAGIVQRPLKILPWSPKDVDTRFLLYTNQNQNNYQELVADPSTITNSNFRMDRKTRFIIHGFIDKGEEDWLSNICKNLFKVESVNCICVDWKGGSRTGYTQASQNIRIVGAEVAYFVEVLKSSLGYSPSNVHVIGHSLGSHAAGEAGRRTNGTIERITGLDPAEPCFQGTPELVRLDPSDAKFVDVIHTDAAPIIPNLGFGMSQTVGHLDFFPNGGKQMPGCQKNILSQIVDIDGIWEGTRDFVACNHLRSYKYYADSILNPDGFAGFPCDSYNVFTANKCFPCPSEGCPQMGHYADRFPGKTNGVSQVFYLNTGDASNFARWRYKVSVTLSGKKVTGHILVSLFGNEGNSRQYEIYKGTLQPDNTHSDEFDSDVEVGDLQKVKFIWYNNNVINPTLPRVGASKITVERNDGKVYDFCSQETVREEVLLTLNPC
Assay: In Vitro Pancreatic Lipase Assay
Conditions: pH 7.4; 37 °C
Experimental: The mixedsolution that composed of […] of 0.1mM 4-MU oleate, […] of the above-mentioned buffer and […] of test samples was prepared before adding lipase. The enzymatic reaction was started by adding 0.05mL of 1 U/mL pancreatic lipase and incubation was carried out for 20 min at 37 °C. The amount of 4-methylumbelliferon released by the enzyme was monitored at an emission of 450 nm and excitation wavelength of 320 nm using a fluorescence spectrophotometer.

Structure (SMILES) | IC50 | Ki
COc1cc(O)cc(CCc2cccc(O)c2)c1 [Batatasin III (4)] | 32.3 µM | 6.79 µM
COc1cc(CC[C@@H](O)C[C@H](O)CCc2ccc(O)c(OC)c2)ccc1O [(3R,5R)-1,7-bis(4-hydroxy-3-methoxyphenyl)-3,5-heptanediol] | > 50 µM | 
COc1cc2c(ccc3cc(O)cc(OC)c32)cc1O [3,5-Dimethoxy-2,7-phenanthrenediol (11)] | 12.7 µM | 2.67 µM
COc1cc(/C=C/C=C/C(=O)CCc2ccc(O)cc2)ccc1O [(4E,6E)-7-(4-hydroxy-3-methoxyphenyl)-1-(4-hydroxyphenyl)-4,6-heptadien-3-one (21)] | 11.1 µM | 2.17 µM
COc1cc(CCc2ccccc2)cc(OC)c1 [3,5-Dimethoxybibenzyl (8)] | > 50 µM | 
Oc1ccc(CC[C@@H](O)C[C@H](O)CCc2ccc(O)cc2)cc1 [(3R,5R)-3,5-dihydroxy-1,7-bis(4-hydroxyphenyl)-3,5-heptanediol (22)] | > 50 µM | 
COc1cc(/C=C/C(=O)OCCc2ccc(O)cc2)ccc1O [p-hydroxyphenethyl trans-ferulate] | > 50 µM | 
O=C(/C=C/C=C/c1ccc(O)cc1)/C=C/c1ccc(O)cc1 [(1E,4E,6E)-1,7-bis(4-hydroxyphenyl)-1,4,6-heptatrien-3-one (19)] | 16.4 µM | 3.34 µM
COc1cc(OC)c2c(ccc3cc(OC)c(O)cc32)c1 [Batatasin I (12)] | > 50 µM | 
COc1cc(CCc2cc(O)cc(O)c2)ccc1O [Tristin (1)] | 13.5 µM | 2.75 µM
O=C(/C=C/C=C/c1ccc(O)cc1)CCc1ccc(O)cc1 [(4E,6E)-1,7-bis(4-hydroxyphenyl)-4,6-heptadien-3-one (20)] | 9.12 µM | 1.92 µM
O=C(/C=C/c1ccc(O)cc1)OCCc1ccc(O)cc1 | 34.8 µM | 7.49 µM

The remaining lines, values ahead:

IC50 | Ki | Structure (SMILES)
> 50 µM |  | Oc1cc(O)c2c(c1)-c1ccccc1CCO2 [9,10-Dihydro-dibenzoxepin-2,4-diol (15)]
> 50 µM |  | COc1cc(O)cc2c1OCCc1ccccc1-2 [9,10-Dihydro-4-methoxy-dibenzoxepin-2-ol (16)]
29.2 µM | 6.45 µM | Oc1cc(O)cc(CCc2ccccc2O)c1 [2',3,5-Trihydroxybibenzyl (2)]
45.7 µM | 9.66 µM | COc1cc(CCc2ccccc2O)cc(OC)c1OC [Batatasin V (10)]
> 50 µM |  | COc1cc(CCc2ccccc2O)cc(O)c1OC [3,4-Dimethoxy-2',5-dihydroxybibenzyl (9)]
44.1 µM | 9.28 µM | COc1cc(CCc2ccccc2O)cc(OC)c1 [3,5-Dimethoxy-2'hydroxybibenzyl (7)]
25.1 µM | 4.96 µM | COc1cc(O)c2c(c1)CCc1cc(O)ccc1-2 [2,5-Dihydroxy-7-methoxy-9,10-dihydrophenanthrene (14)]
30.1 µM | 6.28 µM | COc1cc(O)cc(CCc2ccccc2O)c1 [2-(3-hydroxy-5-methoxyphenethyl)phenol]
40.6 µM | 8.57 µM | COc1cc(O)cc2c1-c1c(O)cccc1CC2 [Hircinol (13)]
8.77 µM | 1.82 µM | COc1c(O)cccc1CCc1cc(O)cc(O)c1 [3,3',5-Trihydroxy-2'-methoxybibenzyl (3)]
